Data from PMC8658804, “Small Molecule CD38 Inhibitors: Synthesis of 8-Amino-N1-Inosine 5′-Monophosphate, Analogues and Early Structure-Activity Relationship” (Molecules (Basel, Switzerland), 2021).
“Also recorded” adds a separate entry of the source. Read-outs that look alike come from different tables or passages of the source.

Legend:
[1] = target: T1, CD38 (Homo sapiens, UniProt P28907); experiment: Inhibition of CD38-catalyzed cADPR hydrolysis (fluorimetric cycling assay); assay type: biochemical; conditions: for IC50 / inhibitory activity (IC50) of CD38-mediated cADPR hydrolysis: 1 mM cADPR, 2 mg/mL CD38, 10 min, pH 4.5, IC50 values >1000 μM are approximate; for IC50: read-out: inhibitory activity (IC50) of CD38-mediated cADPR hydrolysis
T1 construct: incubating 1 mM cADPR with 2 mg/mL of CD38 for 10 min
T1 sequence (P28907 1-300): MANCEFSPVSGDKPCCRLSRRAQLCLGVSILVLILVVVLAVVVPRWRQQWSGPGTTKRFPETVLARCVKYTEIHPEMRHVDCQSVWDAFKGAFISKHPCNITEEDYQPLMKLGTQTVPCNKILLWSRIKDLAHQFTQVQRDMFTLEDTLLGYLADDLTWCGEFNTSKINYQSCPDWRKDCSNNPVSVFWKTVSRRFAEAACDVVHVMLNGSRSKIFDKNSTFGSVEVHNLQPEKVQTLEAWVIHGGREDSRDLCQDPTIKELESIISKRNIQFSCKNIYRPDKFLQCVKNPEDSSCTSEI
Procedure: The inhibition of cADPR hydrolysis by various concentrations of inhibitor (0–1 mM) was determined by incubating 1 mM cADPR with 2 mg/mL of CD38 for 10 min at 20–24uC in 25 mM sodium acetate, pH 4.5. The reaction was stopped by the addition of 150 mM HCl. The precipitated protein was filtered, and the pH was neutralized with Tris base. After diluting the mixture 20-fold, the concentration of the unhydrolyzed cADPR present in the diluted reaction mixture was assayed by the fluorimetric cycling assay as previously described.[46]

[2] = target: T1, CD38; conditions: N1-IMP fragments and 8-NH2-N1-cIDPR from earlier work; read-out: IC50, inhibition of CD38-catalyzed cADPR hydrolysis; cited from earlier work
[3] = system: T-cells; set-up: method as in PMID 12932045, PMID 16967053; conditions: compared with cADPR; cited from earlier work
[4] = target: T2, shCD38 (CD38 catalytic domain) (Homo sapiens, UniProt P28907); experiment: Ligand hydrolysis by high concentrations of shCD38, monitored by RP-HPLC; assay type: biochemical; conditions: 1 mM ligand, 4 mg/mL shCD38
T2 construct: high concentrations of CD38 catalytic domain (shCD38) present in crystallography media
T2 sequence (P28907 43-300 limits assumed): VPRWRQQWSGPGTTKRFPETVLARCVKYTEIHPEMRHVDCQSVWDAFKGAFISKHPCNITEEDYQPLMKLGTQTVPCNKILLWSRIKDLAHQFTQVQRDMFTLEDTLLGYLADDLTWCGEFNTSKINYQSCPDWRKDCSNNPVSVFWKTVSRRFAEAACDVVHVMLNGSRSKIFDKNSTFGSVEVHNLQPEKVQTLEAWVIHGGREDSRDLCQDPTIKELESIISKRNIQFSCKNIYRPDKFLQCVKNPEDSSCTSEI
Procedure: Indeed, 8-NH2-N9-butyl-cIDPR (6, Figure 2) was captured as the hydrolyzed product in the crystal structure with shCD38. […] Incubation of 11, 8-NH2-N1-IMP (1 mM final concentration) with 4 mg/mL shCD38 was monitored using RP-HPLC. The peak corresponding to 8-NH2-N1-IMP (RT = 10.5 min) reduced in intensity over time, alongside the appearance of a new peak (RT = 2.0 min) that was characteristic of an 8-amino substituted hypoxanthine analog (See Supplementary Information, Figure S1).
HPLC studies were carried out as previously described.[36] Briefly, the solution containing shCD38 was adjusted to the desired concentration using Tris-HCl buffer (20 mM, pH 8) and 50 μL was added to the inhibitor (0.05 μmole) in an Eppendorf tube at room temperature. At a given time point, a sample of 5 μL was removed and diluted with 95 μL MilliQ water. 10 μL Of this sample was injected directly into the analytical HPLC system (see General Experimental), eluting at 1 mL/min with an isocratic ion-pair buffer: 0.17% (m/v) cetrimide and 45% (v/v) phosphate buffer (pH 6.4) in MeOH.

[5] = Solubility in the assay medium; assay type: physicochemical; conditions: CD38 assay medium

SMILES | IC50 [1] [µM] | inhibitory activity on CD38-mediated cADPR hydrolysis, in words [1] | further results
O=c1c2ncn(CCCCO)c2ncn1[C@@H]1O[C@H](CO)[C@@H](O)[C@H]1O [Compound 19, N1-(β-D-Ribofuranosyl)-N9-(4-hydroxybutyl)-hypoxanthine] | ~2300 |  | 
Nc1nc2c(=O)n([C@@H]3O[C@H](CO)[C@@H](O)[C@H]3O)cnc2n1[C@@H]1O[C@H](CO)[C@@H](O)[C@H]1O [Compound 17, N1-(β-D-ribofuranosyl)-8-aminoinosine] | ~7600 | low mM inhibitory activity | 
O=c1c2nc[nH]c2ncn1[C@@H]1O[C@H](COP(=O)(O)O)[C@@H](O)[C@H]1O [Compound 9, N1-Inosine 5′-monophosphate] |  |  | IC50 [2]: 14 ± 5 µM
O=c1c2nc(Br)[nH]c2ncn1[C@@H]1O[C@H](COP(=O)(O)O)[C@@H](O)[C@H]1O [Compound 10, N1-(5′-O-Phosphoryl-β-D-ribofuranosyl)-8-bromohypoxanthine] |  |  | IC50 [2]: 201 ± 41 µM
[N-]=[N+]=Nc1nc2c(=O)n([C@@H]3O[C@H](COP(=O)(O)O)[C@@H](O)[C@H]3O)cnc2n1CCCCO [Compound 24, N1-(5′-O-Phosphoryl-β-D-ribofuranosyl)-N9-(4-hydroxybutyl)-8-azidohypoxanthine] | 201 |  | 
NS(=O)(=O)OC[C@H]1O[C@@H](n2cnc3[nH]cnc3c2=O)[C@H](O)[C@@H]1O [Compound 29, N1-(5′-O-sulfonamide-β-D-ribofuranosyl)-hypoxanthine] |  | neither of the two analogues (28, 29) showed any activity | inhibitory activity (IC50) of CD38-mediated cADPR hydrolysis [1]: No activity
NS(=O)(=O)OC[C@H]1O[C@@H](n2cnc3[nH]c(Cl)nc3c2=O)[C@H](O)[C@@H]1O [Compound 28, N1-(5′-O-sulfonamide-β-D-ribofuranosyl)-8-chlorohypoxanthine] |  | neither of the two analogues (28, 29) showed any activity | inhibitory activity (IC50) of CD38-mediated cADPR hydrolysis [1]: No activity
O=c1c2nc(Br)[nH]c2ncn1[C@H]1O[C@@H](COP(=O)(O)O)[C@H](O)[C@@H]1O [Compound 26, N1-(5′-O-Phosphoryl-β-L-ribofuranosyl)-8-bromohypoxanthine] | 230 ± 9 |  | 
O=c1c2ncn3c2ncn1[C@@H]1O[C@H](COP(=O)(O)OP(=O)(O)OC[C@H]2O[C@@H]3[C@H](O)[C@@H]2O)[C@@H](O)[C@H]1O [Compound 2, cyclic inosine 5′-diphosphoribose] |  |  | Ca2+ release [3]: almost indistinguishably to that induced by cADPR
Nc1nc2c(=O)n([C@@H]3O[C@H](COP(=O)(O)O)[C@@H](O)[C@H]3O)cnc2[nH]1 [Compound 11, N1-(5′-O-Phosphoryl-β-D-ribofuranosyl)-8-aminohypoxanthine] |  |  | IC50 [2]: 7.6 ± 0.2 µM; hydrolysis of ligand by shCD38 (RP-HPLC) [4]: hydrolyzed more rapidly than cIDPR (2), but more slowly than 8-NH2-N9-butyl-cIDPR (6); also recorded: hydrolyzed at the N1-ribosyl bond; hydrolysis of ligand by shCD38 (RP-HPLC) ([4]; listed as 8-NH2-N1-IMP): cleaved at high CD38 concentrations
O=c1c2nc(Br)n(CCCCO)c2ncn1[C@@H]1O[C@H](CO)[C@@H](O)[C@H]1O [Compound 18, N1-(β-D-Ribofuranosyl)-N9-(4-hydroxybutyl)-8-bromohypoxanthine] |  |  | solubility in the assay medium [5]: insoluble in the assay medium
O=c1c2nc[nH]c2ncn1[C@H]1O[C@@H](COP(=O)(O)O)[C@H](O)[C@@H]1O [Compound 27, N1-(5′-O-Phosphoryl-β-L-ribofuranosyl)-hypoxanthine] | 460 |  | fold reduction in activity compared to parent / D-ribose N1-IMP counterpart ([1]; ratio of IC50 values): 30 fold
Nc1nc2c(=O)n3cnc2n1[C@@H]1O[C@H](COP(=O)(O)OP(=O)(O)OC[C@H]2O[C@@H]3[C@H](O)[C@@H]2O)[C@@H](O)[C@H]1O [Compound 4, 8-NH2-N1-cIDPR, reference compound] |  |  | IC50 [2]: 56 µM

Further lines, with some results ahead:

IC50 [1] [µM] | inhibitory activity on CD38-mediated cADPR hydrolysis, in words [1] | SMILES | further results
~3300 |  | Nc1nc2c(=O)n([C@@H]3O[C@H](CO)[C@@H](O)[C@H]3O)cnc2n1CCCCO [Compound 21, N1-(β-D-Ribofuranosyl)-N9-(4-hydroxybutyl)-8-aminohypoxanthine] | 
~9500 |  | [N-]=[N+]=Nc1nc2c(=O)n([C@@H]3O[C@H](CO)[C@@H](O)[C@H]3O)cnc2n1CCCCO [Compound 20, N1-(β-D-Ribofuranosyl)-N9-(4-hydroxybutyl)-8-azidohypoxanthine] | 
757 |  | O=c1c2ncn(CCCCO)c2ncn1[C@@H]1O[C@H](COP(=O)(O)O)[C@@H](O)[C@H]1O [Compound 23, N1-(5′-O-Phosphoryl-β-D-ribofuranosyl)-N9-(4-hydroxybutyl)hypoxanthine] | 
~7500 | low mM inhibitory activity | O=c1c2ncn([C@@H]3O[C@H](CO)[C@@H](O)[C@H]3O)c2ncn1[C@@H]1O[C@H](CO)[C@@H](O)[C@H]1O [Compound 15, N1-(β-D-Ribofuranosyl)-inosine] | 
332 |  | Nc1nc2c(=O)n([C@@H]3O[C@H](COP(=O)(O)O)[C@@H](O)[C@H]3O)cnc2n1CCCCO [Compound 25, N1-(5′-O-Phosphoryl-β-D-ribofuranosyl)-N9-(4-hydroxybutyl)-8-aminohypoxanthine] | 
 | no activity | [N-]=[N+]=Nc1nc2c(=O)n([C@@H]3O[C@H](CO)[C@@H](O)[C@H]3O)cnc2n1[C@@H]1O[C@H](CO)[C@@H](O)[C@H]1O [Compound 16, N1-(β-D-ribofuranosyl)-8-azidoinosine] | inhibitory activity (IC50) of CD38-mediated cADPR hydrolysis [1]: No activity
 | no activity | O=c1c2nc(Br)n([C@@H]3O[C@H](CO)[C@@H](O)[C@H]3O)c2ncn1[C@@H]1O[C@H](CO)[C@@H](O)[C@H]1O [Compound 14, N1-(β-D-Ribofuranosyl)-8-bromoinosine] | inhibitory activity (IC50) of CD38-mediated cADPR hydrolysis [1]: No activity
